Measurements taken from ChEMBL document CHEMBL1201862, “PubChem BioAssay data set” (2004).
Activity calls are given as the source filed them.

Assays:
[1] = system: BJ; test: BJ-TERT fibroblast viability loss – cell-based, RAS-independent, luminescence, dose response (AID 1933); assay type: functional; details: Homo sapiens
[2] = DRD fibroblast viability loss – cell-based, non-viral oncogenic, luminescence, dose response (AID 1934); assay type: functional; details: Homo sapiens
[3] = luciferase reporter signal suppression in cells – H4 neuroglioma cells, luminescence, dose response (AID 1990); assay type: functional, cell-based
[4] = system: BJ; test: BJ-TERT-LT-ST fibroblast viability loss – cell-based, RAS-independent, luminescence, dose response (AID 1935); assay type: functional; details: Homo sapiens;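 note: BJ fibroblasts immortalized with TERT plus LT and ST oncogenes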
[5] = system: BJ; test: cells; assay type: functional, cell-based; details: Homo sapiens
[6] = alpha-synuclein stem-loop luciferase translation blockers – H4 neuroglioma cells, luminescence, confirmation (AID 1988); assay type: functional, cell-based
[7] = Luminescence Cell-Based Dose Response HTS to Identify Inhibitors of 5'UTR Stem-Loop Driven Prion Protein mRNA Translation in H4 Neuroglioblastoma Cells. [Related pubchem assays: 1827 (Project Summary), 1813 (Primary HTS)]; assay type: functional
[8] = reduction of Shn3 3'UTR-driven luciferase in osteoblasts – cell-based, Clone20 osteoblasts, firefly luciferase, cherry-picked, dose response (AID 624132); assay type: functional;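 note: firefly luciferase luminescence from reporter carrying the Shn3 3'UTR in osteoblasts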
[9] = non-specific 3'UTR reporter inhibition in Clone20-Shn3RL – cell-based, Renilla luciferase, cherry-picked, counter-screen for Shn3 inhibitor project, dose response (AID 624133); assay type: functional
[10] = cells; assay type: functional, cell-based
[11] = cells; assay type: functional, cell-based; remark: listed apart in the source
[12] = molecular target: T1, Streptokinase A (Streptococcus pyogenes serotype M1, UniProt P10520); test: viability-normalized secreted streptokinase activity reduction – plasminogen activation absorbance, OD405, dose response (AID 1914); assay type: functional, Streptococcus pyogenes M1 GAS;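 note: secreted streptokinase activity via plasminogen activation per viability signal from cell pellet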
T1 sequence (P10520 whole entry): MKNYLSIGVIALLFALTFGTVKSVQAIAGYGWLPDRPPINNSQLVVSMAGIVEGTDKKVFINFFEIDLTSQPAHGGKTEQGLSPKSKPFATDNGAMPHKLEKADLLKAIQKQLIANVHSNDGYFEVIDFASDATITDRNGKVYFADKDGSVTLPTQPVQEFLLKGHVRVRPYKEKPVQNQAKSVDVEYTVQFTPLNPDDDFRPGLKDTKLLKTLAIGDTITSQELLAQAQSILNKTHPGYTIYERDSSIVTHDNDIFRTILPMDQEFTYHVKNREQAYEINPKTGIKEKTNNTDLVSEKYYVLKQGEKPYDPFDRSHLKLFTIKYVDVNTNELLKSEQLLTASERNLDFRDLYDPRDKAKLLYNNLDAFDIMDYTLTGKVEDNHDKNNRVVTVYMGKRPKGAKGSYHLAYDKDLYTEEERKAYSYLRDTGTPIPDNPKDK

[13] = Luminescence Cell-Based Dose Retest to Confirm Inhibitors of Cancer Stem Cells. [Related pubchem assays (depositor defined):AID2717, AID2721]; assay type: functional; details: Homo sapiens
[14] = system: Streptococcus; test: GAS UMAA2166 growth inhibition – luminescence, BacTiterGlo, counter-screen for streptokinase expression inhibitor project, dose response (AID 1915); assay type: functional, organism-based;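 note: potency for reduction of bacterial viability or growth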
[15] = system: Streptococcus sp. 'group A'; test: Streptococcus pyogenes SK(-)GAS viability under kanamycin – luminescence, BacTiterGlo, confirmation, counter-screen for streptokinase expression inhibitor project, dose response (AID 1900); assay type: functional, organism-based
[16] = molecular target: Cytochrome P450 2C19 (Homo sapiens, UniProt P33261); test: Cytochrome panel assay with activity outcomes. Panel member name: p450-cyp2c19 Compounds with AC50 equal or less than 10 uM are considered active; assay type: functional; details: read-out: AC50
Cytochrome P450 2C19, sequence (P33261 whole entry): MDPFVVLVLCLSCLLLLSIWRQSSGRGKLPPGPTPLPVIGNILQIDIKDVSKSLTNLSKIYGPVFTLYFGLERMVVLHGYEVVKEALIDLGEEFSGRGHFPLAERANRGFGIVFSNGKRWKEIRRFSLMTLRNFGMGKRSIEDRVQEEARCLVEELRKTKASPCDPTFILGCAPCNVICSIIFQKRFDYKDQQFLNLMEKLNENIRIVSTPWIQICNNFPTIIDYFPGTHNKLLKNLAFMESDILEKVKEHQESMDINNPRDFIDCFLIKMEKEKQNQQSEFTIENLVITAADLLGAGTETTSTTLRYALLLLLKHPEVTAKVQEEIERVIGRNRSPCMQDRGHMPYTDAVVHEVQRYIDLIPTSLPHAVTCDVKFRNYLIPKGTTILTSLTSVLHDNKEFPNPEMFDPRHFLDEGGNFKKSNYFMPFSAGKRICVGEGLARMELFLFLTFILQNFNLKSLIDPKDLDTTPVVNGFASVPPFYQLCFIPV

[17] = Luminescence Cell-Based Dose Confirmation HTS to Identify Activators of 5'UTR Stem-Loop Driven Alpha-Synuclein mRNA Translation in H4 Neuroglioblastoma Cells. [Related pubchem assays: 1829 (Project Summary), 1814 (Primary HTS)]; assay type: functional
[18] = system: H4; test: Luminescence Cell-Based Dose Response HTS to Identify Activators of 5'UTR Stem-Loop Driven Prion Protein mRNA Translation in H4 Neuroglioblastoma Cells. [Related pubchem assays: 1829 (Project Summary), 1814 (Primary HTS)]; assay type: functional; details: Homo sapiens
[19] = Luminescence Cell-Based Dose Response HTS to Identify Activators of Luciferase Translation or Activity in H4 […] Cells. [Related pubchem assays: 1829 (Project Summary), 1814 (Primary HTS)]; assay type: functional
[20] = Luminescence Cell-Based Dose Confirmation HTS to Identify Inhibitors of Platelet Dense Granule Release. [Related pubchem assays: 1663 (Primary HTS), 1678 (Summary of Project)]; assay type: functional
[21] = molecular target: Luciferin 4-monooxygenase (Photinus pyralis, UniProt P08659); test: inhibition of purified Photinus pyralis luciferase – biochemical, luminescence, dose response (AID 1891)
Luciferin 4-monooxygenase, sequence (P08659 whole entry): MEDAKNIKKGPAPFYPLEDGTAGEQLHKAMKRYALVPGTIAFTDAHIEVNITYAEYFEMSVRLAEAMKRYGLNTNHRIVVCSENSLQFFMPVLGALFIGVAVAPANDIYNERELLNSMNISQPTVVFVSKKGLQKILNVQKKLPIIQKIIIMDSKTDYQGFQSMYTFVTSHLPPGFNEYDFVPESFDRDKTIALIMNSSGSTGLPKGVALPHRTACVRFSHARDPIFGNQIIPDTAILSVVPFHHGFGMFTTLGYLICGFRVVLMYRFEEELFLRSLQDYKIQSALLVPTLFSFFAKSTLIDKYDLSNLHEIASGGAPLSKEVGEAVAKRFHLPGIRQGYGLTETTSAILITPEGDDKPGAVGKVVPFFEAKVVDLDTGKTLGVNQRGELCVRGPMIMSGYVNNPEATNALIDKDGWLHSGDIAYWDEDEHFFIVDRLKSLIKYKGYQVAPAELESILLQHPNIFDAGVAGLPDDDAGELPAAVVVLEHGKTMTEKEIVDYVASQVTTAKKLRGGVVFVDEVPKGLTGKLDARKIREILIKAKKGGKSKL

[22] = molecular target: T2, Protein skinhead-1 (Caenorhabditis elegans, UniProt P34707); assay type: functional
T2 sequence (P34707 whole entry): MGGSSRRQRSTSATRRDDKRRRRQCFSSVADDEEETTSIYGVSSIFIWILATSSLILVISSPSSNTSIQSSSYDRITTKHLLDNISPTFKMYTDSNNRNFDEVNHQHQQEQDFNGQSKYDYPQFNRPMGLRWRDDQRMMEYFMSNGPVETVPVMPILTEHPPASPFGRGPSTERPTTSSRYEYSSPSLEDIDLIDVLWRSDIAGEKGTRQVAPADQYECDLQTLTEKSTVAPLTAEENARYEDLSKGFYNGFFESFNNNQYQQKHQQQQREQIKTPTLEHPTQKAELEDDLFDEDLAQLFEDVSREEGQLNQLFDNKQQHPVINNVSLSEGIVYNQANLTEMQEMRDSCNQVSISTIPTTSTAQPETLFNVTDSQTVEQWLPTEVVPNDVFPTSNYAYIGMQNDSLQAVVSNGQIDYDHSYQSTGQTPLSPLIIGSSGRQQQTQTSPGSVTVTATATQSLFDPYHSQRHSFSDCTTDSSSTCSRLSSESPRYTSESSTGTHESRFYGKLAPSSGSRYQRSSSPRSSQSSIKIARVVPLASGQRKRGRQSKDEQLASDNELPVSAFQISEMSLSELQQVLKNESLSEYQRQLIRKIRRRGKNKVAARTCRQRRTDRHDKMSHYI

[23] = molecular target: T3, RNA-binding protein pos-1 (Caenorhabditis elegans, UniProt G5EF15); test: disruptors of C. elegans POS-1 RNA interaction – biochemical, fluorescence polarization, dose response (AID 1964);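 note: purified POS-1 fused to maltose binding protein made in E. coli; potency of compounds blocking POS-1 binding to fluorescent RNA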
T3 sequence (G5EF15 whole entry): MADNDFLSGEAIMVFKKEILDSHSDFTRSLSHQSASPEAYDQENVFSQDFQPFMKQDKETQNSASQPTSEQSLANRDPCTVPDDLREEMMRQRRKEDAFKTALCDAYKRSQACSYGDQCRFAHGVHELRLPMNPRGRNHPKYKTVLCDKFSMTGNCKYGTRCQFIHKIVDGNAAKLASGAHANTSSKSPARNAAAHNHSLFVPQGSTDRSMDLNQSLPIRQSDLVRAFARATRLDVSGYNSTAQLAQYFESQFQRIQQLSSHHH

[24] = molecular target: Cytochrome P450 2D6 (Homo sapiens, UniProt P10635);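 note: CYP2D6 member of a cytochrome P450 panel assay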
Cytochrome P450 2D6, sequence (P10635 whole entry): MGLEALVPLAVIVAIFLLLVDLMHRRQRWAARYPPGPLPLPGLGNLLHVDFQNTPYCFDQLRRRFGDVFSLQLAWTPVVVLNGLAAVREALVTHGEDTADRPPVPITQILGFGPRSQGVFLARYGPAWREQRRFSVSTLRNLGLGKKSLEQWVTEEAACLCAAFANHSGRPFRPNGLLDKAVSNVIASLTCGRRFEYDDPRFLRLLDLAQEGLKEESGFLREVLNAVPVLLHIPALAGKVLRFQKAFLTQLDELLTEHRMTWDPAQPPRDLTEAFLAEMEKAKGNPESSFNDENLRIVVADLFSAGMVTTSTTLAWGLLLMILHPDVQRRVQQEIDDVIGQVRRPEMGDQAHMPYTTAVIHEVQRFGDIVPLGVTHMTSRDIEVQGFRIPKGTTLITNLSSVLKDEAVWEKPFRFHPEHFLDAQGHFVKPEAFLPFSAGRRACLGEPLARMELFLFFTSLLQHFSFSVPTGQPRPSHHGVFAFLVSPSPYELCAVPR

[25] = molecular target: T4, Zinc finger protein mex-5 (Caenorhabditis elegans, UniProt Q9XUB2); test: potency of MEX-5 RNA-binding blockers – biochemical, C. elegans, fluorescence polarization, dose response (AID 1960)
T4 sequence (Q9XUB2 whole entry): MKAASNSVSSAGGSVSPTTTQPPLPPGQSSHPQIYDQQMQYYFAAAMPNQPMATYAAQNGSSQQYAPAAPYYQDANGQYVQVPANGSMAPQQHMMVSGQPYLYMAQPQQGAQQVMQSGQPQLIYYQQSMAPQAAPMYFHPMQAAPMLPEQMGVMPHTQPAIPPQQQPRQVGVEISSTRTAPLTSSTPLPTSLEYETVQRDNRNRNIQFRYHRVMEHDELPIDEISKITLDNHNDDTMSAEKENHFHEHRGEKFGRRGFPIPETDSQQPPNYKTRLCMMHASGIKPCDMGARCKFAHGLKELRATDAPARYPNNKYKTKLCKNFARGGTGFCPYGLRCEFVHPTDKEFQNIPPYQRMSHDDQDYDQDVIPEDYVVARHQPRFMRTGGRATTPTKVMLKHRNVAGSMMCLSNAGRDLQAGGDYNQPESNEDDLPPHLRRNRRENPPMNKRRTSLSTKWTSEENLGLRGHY

[26] = system: INS1; test: INS-1E survival protection against cytokine death – cell-based, luminescence, retest, dose response (AID 449756); assay type: functional; details: Rattus norvegicus;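 note: cell death triggered by IL-1 beta plus TNF-alpha plus IFN-gamma mixture; protective hits raise ATP signal compared with cytokine alone wells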
[27] = system: H9c2; test: cells; assay type: functional, cell-based; details: Rattus norvegicus, H9c2, Myocardium;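 note: confirmatory concentration-response retest of ultra-high-throughput screening hits for modulation of myocardial damage; cell death induced by hydrogen peroxide oxidative stress; compound pretreatment for 60 min then peroxide exposure for 2 h; potency is for protecting the cells against peroxide damage rather than for killing them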
[28] = molecular target: Paired box protein Pax-8 (Homo sapiens, UniProt Q06710); test: PAX8 transcriptional activity inhibition in RMG-I – RMG-I cells, luciferase, cherry-pick, dose response (AID 687027); assay type: functional, cell-based;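 note: luciferase reporter driven by Pax8 target thyroperoxidase promoter measured by SteadyGlo luminescence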
Paired box protein Pax-8, sequence (Q06710 whole entry, the tested form may be a part): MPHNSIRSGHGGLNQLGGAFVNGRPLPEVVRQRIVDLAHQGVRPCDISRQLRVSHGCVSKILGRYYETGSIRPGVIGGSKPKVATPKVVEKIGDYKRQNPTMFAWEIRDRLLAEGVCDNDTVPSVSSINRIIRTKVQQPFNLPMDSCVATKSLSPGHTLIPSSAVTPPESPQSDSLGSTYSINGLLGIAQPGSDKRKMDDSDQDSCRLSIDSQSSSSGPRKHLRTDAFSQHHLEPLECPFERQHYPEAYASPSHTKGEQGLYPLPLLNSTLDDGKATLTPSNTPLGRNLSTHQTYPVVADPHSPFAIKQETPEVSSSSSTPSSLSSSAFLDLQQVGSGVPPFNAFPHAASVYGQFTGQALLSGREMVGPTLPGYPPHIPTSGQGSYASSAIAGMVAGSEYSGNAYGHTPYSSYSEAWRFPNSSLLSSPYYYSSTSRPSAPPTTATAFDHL

[29] = HIV-1 AD8 envelope cell-cell fusion blockers – cherry-pick, dose response (AID 652062); assay type: functional, cell-based;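 note: luciferase signal from cell-cell fusion driven by HIV-1 clade B AD8 Env; potency is for inhibitors of fusion seen as a drop in luminescence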
[30] = blockers of HIV-1 envelope-mediated cell-cell fusion – cherry-pick, dose response (AID 652057); assay type: functional, cell-based

SMILES: Cc1ccc(C(=O)c2cc([N+](=O)[O-])ccc2N2CCOCC2)cc1
- EC50 [1]: 5.09 µM (active)
- EC50 [2]: 2.27 µM (active)
- EC50 [3]: 7.57 µM (active)
- EC50 [4]: 3.32 µM (inconclusive)
- EC50 [5]: 36.1 µM (inconclusive)
- EC50 [6]: 1.73 µM (active)
- EC50 [7]: 7.18 µM (active)

SMILES: N#C/C(=C(\O)Cc1ccccc1)c1nc2ccccc2[nH]1
- AC50 [8]: > 70 µM (inactive)
- AC50 [9]: 23.2 µM (active)

SMILES: COc1ccc(CCNC(=O)CSc2nc(-c3ccc(OC)c(OC)c3)ccc2C#N)cc1
- EC50 [10]: > 350 µM (not active)
- EC50 [11]: > 350 µM (not active)

SMILES: Cc1cccc2[nH]c3c(N4CC=C(c5ccc(F)cc5)CC4)ncnc3c12
- EC50 [12]: > 150 µM (not active)
- AC50 [13]: 6.48 µM (active)
- EC50 [14]: 7.98 µM (active)
- EC50 [15]: 2.84 µM (active)

SMILES: Cc1nc(C(=O)Nc2ccc(Cl)cc2Cl)nn1-c1cc(OC(C)C)c(Cl)cc1Cl
- AC50 [16]: 7.08 µM (inconclusive)
- EC50 [10]: > 350 µM (not active)
- EC50 [11]: > 350 µM (not active)

SMILES: O=C(NCc1ccco1)c1cc(-c2cccs2)on1
- EC50 [10]: > 350 µM (not active)
- EC50 [11]: 150 µM (active)

SMILES: COc1ccccc1C(c1nnnn1CC1CCCO1)N1CCC(C(N)=O)CC1 (centres undefined)
- EC50 [10]: > 350 µM (not active)
- EC50 [11]: > 350 µM (not active)

SMILES: O=C(CC1SC(N2CCCC2)=NC1=O)Nc1ccc(C(=O)Nc2ncccc2O)cc1 (centres undefined)
- EC50 [17]: 16.5 µM (active)
- EC50 [18]: 12.3 µM (active)
- EC50 [10]: > 350 µM (not active)
- EC50 [11]: 40.5 µM (active)
- EC50 [19]: 11.1 µM (active)

SMILES: COc1ccc(C(=O)Nc2ccc(N3CCCC3)cc2)cc1OC
- EC50 [20]: 1.03 µM (active)
- EC50 [1]: 14.9 µM (active)
- EC50 [21]: 1.45 µM (active)
- EC50 [2]: 11.2 µM (active)
- EC50 [4]: > 150 µM (not active)
- EC50 [5]: 12.9 µM (active)

SMILES: Cc1ccc(N=C(S)Nc2ccc(C(C)C)cc2)cc1S(=O)(=O)N1CCCCCC1
- EC50 [12]: > 150 µM (not active)
- AC50 [13]: 2.1 µM (active)
- EC50 [14]: > 150 µM (not active)
- EC50 [15]: 13.2 µM (active)

SMILES: CCCNc1c(F)c(F)c2c(C)c3ccccc3nc2c1F
- IC50 [22]: > 100 µM (inactive)
- EC50 [23]: > 300 µM (inconclusive)
- AC50 [24]: 25.1 µM (inconclusive)
- EC50 [25]: 1.97 µM (active)

SMILES: COC(=O)c1ccc(COc2ccccc2/C=C(\C#N)C(=O)Nc2c(C)cccc2C)cc1
- AC50 [13]: 2.46 µM (active)
- AC50 [26]: 28.4 µM (active)

SMILES: COc1ccc(-c2cc(C(=O)OCC(=O)c3cccc([N+](=O)[O-])c3)c3cc(C)ccc3n2)cc1
- EC50 [1]: > 150 µM (not active)
- EC50 [2]: > 150 µM (not active)
- EC50 [4]: > 150 µM (not active)
- EC50 [5]: > 150 µM (not active)

SMILES: O=c1c2ccccc2oc2ccc(C#CC3(O)CCCCC3)cc12
- AC50 [13]: 6.5 µM (active)

SMILES: COc1cccc(/C=N/Nc2nc3ccccc3n3cnnc23)c1
- EC50 [10]: 191 µM (active)
- IC50 [27]: > 79 µM (inactive)
- EC50 [11]: > 350 µM (not active)
- EC50 [3]: > 120 µM (not active)
- EC50 [6]: 15.6 µM (active)
- EC50 [7]: > 120 µM (not active)

SMILES: Cc1ccc(/C=N/NC(=O)COc2ccccc2-c2ccccc2)cc1
- EC50 [1]: 0.643 µM (inconclusive)
- EC50 [2]: 0.657 µM (active)
- EC50 [4]: 0.435 µM (inconclusive)
- AC50 [28]: 0.77 µM (active)
- EC50 [5]: 0.605 µM (inconclusive)

SMILES: CCC(=O)N(C)C[C@@H]1Oc2cc(C#Cc3ccccc3)ccc2S(=O)(=O)N([C@@H](C)CO)C[C@H]1C
- AC50 [29]: 30.3 µM (active)
- AC50 [30]: 26.2 µM (active)

SMILES: Cc1ccc(S(=O)(=O)N(C)C[C@@H]2Oc3ccc(NC(=O)Cc4ccccc4)cc3CC(=O)N([C@H](C)CO)C[C@@H]2C)cc1
- AC50 [29]: 2.32 µM (active)
- AC50 [30]: < 0.26 µM (active)

SMILES: O=C(COc1ccc(-c2ccccc2)cc1)N/N=C/c1cc(O)ccc1Br
- EC50 [12]: 5.71 µM (active)
- AC50 [13]: 4.31 µM (active)
- EC50 [14]: 4.98 µM (active)
- EC50 [15]: 2.51 µM (active)

SMILES: O=C(CCCOc1ccc(Cl)cc1Cl)N/N=C/c1ccccc1O
- EC50 [10]: > 350 µM (not active)
- EC50 [11]: 11.8 µM (active)
